row,melting point [°C],SMILES
1,104 to 111,COc1ccc(C2COc3cc(OC(=O)C(C)(C)C)ccc3C2(O)Cc2ccc(OCc3ccccc3)cc2)cc1 (stereo not drawn)
2,148 to 150,COc1ccc(C(=O)C23CC4CC(C2)CC(C(=O)c2ccc(OC)cc2)(C4)C3)cc1
3,207 to 209,OCc1csc(Nc2ccc(Br)cn2)n1
4,225,NS(=O)(=O)c1cccc(-c2cn(-c3nc(-c4ccc(Cl)cc4)cc(C(F)(F)F)n3)cn2)c1
5,119 to 123,Cn1c2c(c3ccccc31)SCCC2(C)C=O (stereo not drawn)
6,139 to 140,CC(C)(S)C(=O)N[C@@H](CS)C(=O)O
7,190,Cc1nc2ccccc2c(NCc2ccccc2)c1C(=O)O
8,280 to 282,CCOC(=O)c1cc2c3n(ccc-2n1)C(Br)C=N3 (stereo not drawn)
9,77 to 80,CN1C(C)(C)CN(CCO)C(=O)C1(C)C
10,78 to 79,Cn1nc(C(F)F)c(CS(=O)(=O)C2=NOC(C)(C)C2)c1Cl
11,230 to 232,COc1ccc(Nc2nc(Cl)nc3c(OC)cccc23)c(C)c1
12,157 to 158,CCc1ccc(-c2c(Cl)c(CN3C(=O)CCC3=O)nc3sc4c(c23)CCNC4)cc1
13,105 to 108,COC(=O)CCc1c[nH]cn1
14,233,O=C(Nc1ccc2[nH]c(=O)oc2c1)C(=O)N1CCC(Cc2ccc(F)c(F)c2)CC1
15,129 to 131,O=c1nc(O)ccc2ccccc12
16,285 to 288,O=c1cc(-c2ccccc2)c2c([nH]1)CCCC2
17,182 to 184,CN1C(=N)N(c2ccc(Cl)cc2)CC1=O
18,270 to 273,O=C1CCC(N2Cc3c(OCc4cnc5ccccc5c4)cccc3C2=O)C(=O)N1 (stereo not drawn)
19,194 to 197,Nc1ccc(-c2ccc3nnn(Cc4ccc5ncccc5c4)c3n2)cn1
20,163 to 164,CCN(CC)S(=O)(=O)c1ccc(Oc2ccc([N+](=O)[O-])cc2C#N)cc1
21,118 to 123,CCOC(=O)C(C)(C(C)=O)c1ccc(N)c(NC)c1C#N (stereo not drawn)
22,264 to 267,COc1cc(Nc2c(C#N)cnc3cc(-c4ccc(CO)cc4)ccc23)c(Cl)cc1Cl
23,166 to 168,COc1ccc(CNn2nnc3c(-c4ccco4)ncnc32)cc1
24,203 to 205,CC1(C)CCn2c(nc(-c3ccncn3)cc2=O)N1CC(=O)c1ccccc1

row,melting point [°C],SMILES
1,123 to 124,COc1ccc(CNC(=O)C(=O)NCCc2ccccn2)c(OC)c1
2,132 to 134,O=C(Cl)c1sc2cc(OCc3ccccc3)ccc2c1Cl
3,247 to 248,CCOC(=O)c1sc(Oc2cccnc2)c2c1CCc1cnn(C)c1-2
4,147 to 149,Cc1cc(NC2=NCCN2C(=O)c2ccccc2)n(C)n1
5,137 to 139,COc1cccc(N2CCN(c3ccc(S(=O)(=O)N[C@@H](Cc4ccccc4)C(=O)O)cc3)CC2)c1
6,73,OCCCN1c2ccccc2CCc2sccc21
7,181 to 183,Cc1sc(C(=O)NCc2ccc3c(c2)OCO3)cc1[N+](=O)[O-]
8,242 to 244,CCCCc1nc(=O)c2cc(C=O)ccc2[nH]1
9,182,CCCNC(=S)NS(=O)(=O)c1cc2c(cc1OC)OCC(NC(=O)c1cc(Cl)ccc1OC)C2 (stereo not drawn)
10,171 to 172,CC(C)n1c(=O)n(C)c(=O)c2c(S(=O)(=O)CCCO)n(C3Cc4ccccc4C3)cc21
11,123 to 125,CCOC(=O)C1Cc2c(c(Cl)cc3c(-c4ccccc4)noc23)O1 (stereo not drawn)
12,144 to 148,C/C(=C(\C#N)C(N)=S)N1CCCN(c2cccc(C)c2)CC1
13,139 to 140,COc1ccc(N)c(OCC(N)=O)c1
14,130 to 132,"CC(N=Cc1ccc(O)cc1)C1CCCCC1 (single isomer, unassigned; (+))"
15,62 to 64,CCSc1c(Cl)nc(Cl)nc1Cl
16,103 to 104,COc1c(CCCI)cccc1OCc1coc(/C=C/c2ccccc2)n1
17,144 to 145,O=C1CC[C@]2(O)C[C@H]1OC2=O
18,> 300,Nc1scc2c(C(=O)O)nn(-c3ccc(Cl)cc3)c(=O)c12
19,152 to 154,O=C(CCCCOc1ccc(-c2ccccc2)cc1)NO
20,198 to 201,CN(C)c1ccc(-c2cc(=O)c(C(=O)O)cn2-c2ccc(F)c(N)c2)cc1
21,188 to 190,O=C1CC(C(=O)O)NN1 (stereo not drawn)
22,295 to 297,O=C1c2cc(Cl)ccc2C(O)N1c1ccc2ccc(Cl)nc2n1 (stereo not drawn)
23,174 to 176,CC12CC(F)C3c4ccc(O)cc4CC(CCCCCN4CCCC4CSCCCC(F)(F)C(F)(F)F)C3C1CCC2O (stereo not drawn)
24,222 to 225,CSc1ccccc1C(=O)Nc1ccc(C(=O)N2Cc3ccccc3Cc3ccccc32)cc1

row,melting point [°C],SMILES
1,152 to 154,Cn1cc(-c2cc(OC3CCCC3)c(Cl)cc2F)c(=O)cc1C(F)(F)F
2,155 to 156,CC(C)N(CCN1C(=O)/C(=N/NC(=O)NC2CCCCC2)c2cc(Br)ccc21)C(C)C
3,143,CC1=Cc2c(cccc2-c2cccc3ccccc23)C1
4,157 to 158,O=C(O)[C@H](Cc1ccccc1)NS(=O)(=O)N1CCOCC1
5,74 to 76,CCCCCCCCCCCC(=O)OC1C(C)C(c2ccccc2)NC(c2ccccc2)C1C (stereo not drawn)
6,151 to 153,CC(C)C[C@H](NC(=O)c1cc2ccccc2o1)C(=O)N[C@H]1CC[C@@H](C)N(S(=O)(=O)c2ccccn2)CC1=O
7,117,C=CCn1c(C)nc2c3c(ccc21)[C@@H](OCCF)[C@H](O)[C@@H](c1ccccc1)O3
8,114 to 115,Cc1ccc(C(O)c2ccc(N)cc2)nc1 (stereo not drawn)
9,107 to 108,C[C@H]1[C@H](Oc2cccc(C(F)(F)F)c2)CN1C(N)=O (relative stereo)
10,155 to 163,O=C(O)c1cccc(Cc2c(-c3ccc(OC(F)F)c(OC4CC4)c3)[nH]c3cn[nH]c(=O)c23)c1
11,245,O=C(O)c1cccc2cc3ccccc3cc12
12,64 to 67,CCCCCCCCCCCCSc1nnn(C(C(=O)O)c2ccccc2)n1 (stereo not drawn)
13,195 to 197,Clc1cc2c(cc1Cl)Nc1cscc1CN2
14,77 to 78,Cc1c(Cc2cc(Cl)cc(Cl)c2)c(C(C)C)nn1CCO
15,154 to 155,N#Cc1cc(N)ccc1N1CCC(OC(=O)c2ccccc2)CC1
16,136 to 138,CON(C(=O)c1cn(C)nc1C(F)F)C(C)c1cccc(I)c1 (stereo not drawn)
17,193 to 195,CCS(=O)(=O)Nc1cc(-n2nc3n(c2=O)CCCS3)c(F)cc1C#N
18,122 to 124,COc1ccc(-c2nc3c(OC(C)=O)cccc3s2)cc1
19,190 to 192,Cn1c(-c2ccccc2Cl)c2ccsc2nc1=O
20,284,CN1CCN(CCC(=O)Nc2ccc3c(c2)C(=O)c2cc(NC(=O)CCN4CCN(C)CC4)ccc2C3=O)CC1
21,118 to 120,Cn1c(=O)c2c(ncn2CCCCC#N)n(C)c1=O
22,171,CC(C)(C)c1ccc2[nH]c(C(=O)c3ccc(Cl)cc3)c(CC(=O)O)c2c1
23,75 to 76,CO[C@@H](C(=O)N[C@H]1CC[C@@H](OC(=O)C2CCCC2)CNC1=O)[C@H](O)[C@@H](O)[C@H](O)/C=C/C(C)(C)C
24,82 to 84,CCOC(=O)c1cnc2n(c1=O)CCCCC2

row,melting point [°C],SMILES
1,111 to 112,COc1ccc(NC(=O)NCCCOc2cccc(CN3CCCCC3)c2)cc1
2,88 to 92,CCOC(=O)C(=CNc1nonc1C)C(=O)c1cc(F)c(F)c(F)c1F
3,182,CC12Nc3ccccc3N1C(=O)c1ccccc12 (stereo not drawn)
4,115 to 117,CN(C)C(=O)C#C[C@H]1CC[C@H](N(C)C(=O)OC(C)(C)C)CC1
5,99 to 100,CCOC(=O)C(=O)/C=C/c1ccc(OCCc2nc(-c3ccccc3)oc2C)cc1
6,118 to 120,CC1CC2(CN(O)C2=O)c2cc(F)ccc2O1 (stereo not drawn)
7,45 to 47,CCCCCCCCC#Cc1ccc2sc(C=O)cc2c1
8,240 to 241,CCOc1c(C)cccc1-c1nc2ccc(C(=O)O)cc2c(=O)[nH]1
9,60 to 61,CC(C)OC(=O)CCN=c1sc2ccccc2s1
10,92 to 94,COc1cc(OC)c(/C=C/C(=O)Nc2ccc(OC)c(N)c2)c(OC)c1
11,206,CC[C@H](N)c1nc2c(C(F)(F)F)cccc2c(O)c1C(=O)Nc1nccs1
12,290 to 292,N=C(NO)c1ccc(-c2cnc(-c3ccc(C(=N)NO)cc3)nc2)cc1
13,217 to 218,COC(=O)c1ccc(C(=O)Nc2cc3c4c(c2)CCCC4(C)CCC3)cc1
14,274 to 276,COc1cc(Nc2cc(-c3ccc(F)cc3)nc3ccccc23)ccc1Cl
15,137 to 139,N#CC=Cc1ccc(Cl)cc1C(=O)c1ccccc1Cl
16,230 to 231,CN(C)Cc1ccc2cc(NC(=O)c3ccc(-c4ccc(Cl)cc4)cc3)ccc2c1
17,154 to 155,Cc1cc(Nc2ccn(-c3ccccc3)n2)cc(C)c1O
18,175 to 179,CN(C)c1ncc2c(n1)-c1ccc(Cl)cc1C(c1ccccc1F)=NC2
19,85 to 87,CC(=O)C(=Cc1cc(Cl)cc(Cl)c1)C(C)=O
20,101,COc1ccc(-c2cc(C)nc3ccccc23)cc1
21,103 to 105,O=S(=O)(CCl)c1cccc2ccccc12
22,151 to 153,CC(C)(C)OC(=O)NCCCn1c(CCCOc2ccccc2)nc2c(N)nc3ccccc3c21
23,169,Cc1ccccc1NC(=O)Nc1ccc(NC(=O)C(CC(=O)Nc2ccc(C(=O)O)cc2)c2ccccc2)cc1 (stereo not drawn)

row,SMILES,melting point [°C]
1,O=[N+]([O-])N=c1ccccn1Cc1ccccc1,125 to 126
2,O=C(Nc1ccc2c(c1)nc1n2CCCC1)c1cc2cccnc2n1Cc1ccccc1,233 to 235
3,CNC(=O)Oc1ccc2c(c1)c1c(n2C)C2(CC1)CCN(Cc1ccccc1)CC2,189 to 190
4,C=CCN1CCC=C(c2ccc(C(C)(C)CCCCCC)cc2O)C1,109 to 110
5,CC(=O)C1CCC2C3CCC4CC(O)C(C)CC4(C)C3C(=O)CC12C (stereo not drawn),142 to 146
6,Cc1nc(C=O)c2n1-c1ccc(Cl)cc1C(c1ccccc1Cl)=NC2,237 to 239
7,OCc1snc(Cl)c1Cl,94 to 95
8,COc1cc(CN2CCNC(CO)C2)cc(OC)c1OC (stereo not drawn),93
